In patent US20040171627A1, “Treatment of renal fibrosis” (Hadasit, priority 2001, published 2004):
Where “and” joins values, the source holds several entries; their conditions need not be identical. Equal entries are not always repeated. Entries after “also recorded” stand apart in the source; their conditions may differ.

How the values were obtained:
[1] = test system: RMR rats (5/6 nephrectomy), renal fibrosis; assay: Light microscopy of kidneys after 5/6 nephrectomy (RMR) in rats, semi-quantitative histological evaluation; type: in vivo, Male Wistar rats
Experimental: A solution of halofuginone was prepared by dissolution of powder of halofuginone hydrobromide in aqueous media containing suitable buffer. Male Wistar rats (weighing 300±30 g at the start of the experiment) were used in this study after being allowed to acclimatize to their environment for one week. Rats were assigned to undergo renal mass reduction (RMR) by 5/6 nephrectomy or sham operation, under anesthesia with intraperitoneal injection of pentobarbital (35 mg/kg body weight). RMR was performed by ligature of 2 of 3 major branches of the left renal artery and right nephrectomy in the same session. Sham rats undergo exposure of the kidneys and removal of the peri-renal fat, without undergoing RMR. After 24 hours recovery of the rats were assigned to one of the following groups: 1) Group I: RMR rats, oral gavage with halofuginone 0.2 mg/kg/day started 24 hours post surgery. 2) Group II: RMR rats, oral gavage with normal saline daily, started 24 hours post surgery. 3) Group III: age matched, sham operated rats served as the controls. All animals were allowed free access to a standard diet and water ad libitum. At sacrifice (10 weeks after RMR), kidneys were removed and processed for in situ hybridization, immunohistochemistry and histological evaluation. Light microscopy studies: specimens were fixed in 10% buffered formaldehyde and embedded in paraffin. Histological sections of 4-5μ thickness were stained with hematoxylin-eosin (HES), periodic acid Schiff (PAS) and Masson trichrome (light green). A semi-quantitative score was used to evaluate the degree of glomerulosclerosis, mesangial expansion and proliferation and tubulo-interstitial changes. A minimum of 30 glomeruli in each specimen was examined and the severity of the lesions was graded from 0 to 4+, according to the percentage of glomerular involvement. […] An injury score was obtained by multiplying the degree of damage (0-4+) by the percentage of glomeruli with the same degree of lesions. The evaluation of tubulointerstitial fibrosis was performed with the point-counting method using a Zeiss I integrating eyepiece.

[2] = test system: RMR rats (5/6 nephrectomy); assay: Protein concentration in urine (proteinuria) of RMR rats; type: in vivo, Male Wistar rats; conditions: halofuginone 0.2 mg/kg/day oral, statistically significant from week 5 post-nephrectomy on (FIG. 2)
Experimental: Male Wistar rats (weighing 300±30 g at the start of the experiment) were used in this study. They were allowed to acclimatize to their environment for one week. Rats were assigned to undergo renal mass reduction (RMR) by 5/6 nephrectomy or Sham operation, under anesthesia with intraperitoneal injection of pentobarbital (35 mg/kg body weight). RMR was performed by ligature of 2 of 3 major branches of the left renal artery and right nephrectomy in the same session. Sham rats have undergone exposition of the kidneys and removal of the peri-renal fat. After 24 hours recovery the rats were assigned to one of the following groups: 1) Group I: RMR rats, oral gavage with halofuginone 0.2 mg/kg/day started 24 hours post surgery. 2) Group II: RMR rats, oral gavage with normal saline daily, started 24 hours post surgery. 3) Group III: age matched, sham operated rats served as the controls. […] Every week, systolic blood pressure was measured by tail cuff manometry and urine samples were collected individually in metabolic cages for determination of total protein and creatinine excretion. Protein concentration in urine was determined by a colorimetric method using pyrogallol-red molybdate complex (cobas integra 700, Roche). Body weight was also measured. […] Serum creatinine was measured with a Hitachi model 747 autoanalyzer, using the kinetic Jaffe method.

SMILES: O=C(CC1NCCC[C@H]1O)Cn1cnc2cc(Br)c(Cl)cc2c1=O (stereo in doubt) [Halofuginone, 7-bromo-6-chloro-3-[3-(3-hydroxy-2-piperidinyl)-2-oxopropyl]-4(3H)-quinazolinone]
- tubulointerstitial fibrosis compared to the control group ([1]; halofuginone 0.2 mg/kg/day oral, RMR rats, 10 weeks): significant decrease
- presence of glomerulosclerosis and mesangial proliferation ([1]; halofuginone 0.2 mg/kg/day oral, RMR rats, 10 weeks, versus control): less accentuated
- Tubules ([1]; individual rats of Group I, halofuginone 0.2 mg/kg/day oral gavage, 10 weeks after RMR, light microscopy): Normal; also recorded: Few atrophic
- Glomerulus Proliferation ([1]; individual rats of Group I, halofuginone 0.2 mg/kg/day oral gavage, 10 weeks after RMR, light microscopy (preliminary results)): Mild (4×) and Moderate (2×)
- Glomerulus Sclerosis ([1]; individual rats of Group I, halofuginone 0.2 mg/kg/day oral gavage, 10 weeks after RMR, light microscopy, graded 0 to 4+): 0
- levels of proteinuria versus control nephrectomized group [2]: lower levels of proteinuria
